Eight compounds from patent US20040229881A1, “Methods of use of antimicrobial compounds against pathogenic mycoplasma bacteria” (SmithKline Beecham Corporation, priority 1999, published 2004) can be followed below.

Assay type in all cases: cell-based
For test [1], the system named is Mycoplasma pneumoniae (MPN). Nature of the test: MIC by micro-broth dilution, Mycoplasma pneumoniae. The procedure: (§1) Organisms used in the analyses included Mycoplasma pneumoniae (MPN), M. hominis (Mh), M. fermentans (Mf), M. genitalium (Mg), M. penetrans (Mp) and Ureaplasma urealyticum (Uu). Minimum Inhibitory Concentrations (MICs) were determined using a micro-broth dilution method. Assays for Ureaplasma urealyticum were performed in 10B media and all other mycoplasma assays were carried out in SP4 medium.
(Broth dilution looks for growth in wells or tubes with falling amounts of substance.)

The test system of a further test is M. hominis (Mh). The test is described as follows: MIC by micro-broth dilution, M. hominis. The note with it: 49 isolates, SP4 medium. The procedure: as §1
The next test concerns M. fermentans (Mf). Nature of the test: MIC by micro-broth dilution, M. fermentans. The note with it: 19 isolates, SP4 medium. The procedure: as §1
For test [2], the system named is Ureaplasma urealyticum (Uu). Nature of the test: MIC by micro-broth dilution, Ureaplasma urealyticum. On the procedure:
as §1

The subject of the next test is M. genitalium (Mg). The test is described as follows: MIC by micro-broth dilution, M. genitalium. The note with it: Mycoplasmoides genitalium, 2 isolates, one line per isolate, SP4 medium, read-out: MICs for Mg. On the procedure: as §1
The next test concerns M. penetrans (Mp). The test is described as follows: MIC by micro-broth dilution, M. penetrans. The note with it: 1 isolate, SP4 medium; for MIC: read-out: MICs for Mp. On the procedure: as §1
The mark [3] stands for this setting: MPN, 103 isolates, SP4 medium, read-out: MIC 90.
[4] abbreviates: Metamycoplasma hominis, read-out: MIC 90.
Where [5] appears, read: Mycoplasmopsis fermentans, read-out: MIC 90.
The mark [6] stands for this setting: Uu, 99 isolates, 10B media, read-out: MIC 90.

Converted amounts (≈) assume the structure as drawn. Where two headings read alike, the source gives them in different places.

Take `CO/N=C1\CN(c2nc3c(cc2F)c(=O)c(C(=O)O)cn3C2CC2)CC1CN` (racemic) [Gem, (R,S)-7-(3-aminomethyl-4-methoxyiminopyrrolidin-1-yl)-1-cyclopropyl-6-fluoro-4-oxo-1,4-dihydro-1,8-naphthyridine-3-carboxylic acid]: the MIC90 in test [1] (setting [3]) is 0.125 µg/mL (≈ 0.321 µM); with M. hominis (Mh) (setting [4]), ≤ 0.008 µg/mL; in the test on M. fermentans (Mf) (setting [5]) it was ≤ 0.008 µg/mL; in test [2] (setting [6]), 0.25 µg/mL (≈ 0.642 µM). Besides, the figures for the MIC with M. genitalium (Mg) and with M. penetrans (Mp) were 0.063 µg/mL (≈ 0.162 µM) and ≤ 0.008 µg/mL, respectively.
Turning to `CC[C@H]1OC(=O)[C@H](C)[C@@H](O[C@H]2C[C@@](C)(OC)[C@@H](O)[C@H](C)O2)[C@H](C)[C@@H](O[C@@H]2O[C@H](C)C[C@H](N(C)C)[C@H]2O)[C@](C)(O)C[C@@H](C)CN(C)[C@H](C)[C@@H](O)[C@]1(C)O` [Azith, azithromycin], the MIC90 is ≤ 0.008 µg/mL in test [1] (setting [3]), 2 µg/mL (≈ 2.67 µM) in the test on M. fermentans (Mf) (setting [5]) and 4 µg/mL (≈ 5.34 µM) in test [2] (setting [6]). Further, the MIC with M. genitalium (Mg) and in the test on M. penetrans (Mp) was ≤ 0.008 µg/mL each time.
`CC[C@H]1OC(=O)[C@H](C)[C@@H](O[C@H]2C[C@@](C)(OC)[C@@H](O)[C@H](C)O2)[C@H](C)[C@@H](O[C@@H]2O[C@H](C)C[C@H](N(C)C)[C@H]2O)[C@](C)(OC)C[C@@H](C)C(=O)[C@H](C)[C@@H](O)[C@]1(C)O` [Clar, clarithromycin]: the MIC90 is ≤ 0.008 µg/mL in test [1] (setting [3]), 64 µg/mL (≈ 85.6 µM) in the test with M. fermentans (Mf) (setting [5]) and 0.063 µg/mL (≈ 0.0842 µM) in test [2] (setting [6]). The MIC with M. genitalium (Mg) and with M. penetrans (Mp) was ≤ 0.008 µg/mL each time.
Consider `CCC[C@@H]1C[C@@H](C(=O)N[C@@H]([C@H]2O[C@H](SC)[C@H](O)[C@@H](O)[C@H]2O)[C@H](C)Cl)N(C)C1` [Clin, clindamycin], for which the “MIC90” value in the test with M. hominis (Mh) is “≦0.008 ug/ml”; against M. fermentans (Mf) it was 0.031 µg/mL (≈ 0.0729 µM). The “MICs for Mp” value against M. penetrans (Mp) is listed as “≦0.008 ug/ml”.
`Cc1c(F)c(N2CCNC(C)C2)cc2c1c(=O)c(C(=O)O)cn2C1CC1` (stereo not shown) [Grep, grepafloxacin]: the MIC90 in test [1] (setting [3]) came to 0.125 µg/mL (≈ 0.348 µM); with M. hominis (Mh) (setting [4]), 0.031 µg/mL (≈ 0.0863 µM); with M. fermentans (Mf) (setting [5]), 0.016 µg/mL (≈ 0.0445 µM); in test [2] (setting [6]), 1 µg/mL (≈ 2.78 µM). In addition, the MIC in the test with M. genitalium (Mg) was 0.125 µg/mL (≈ 0.348 µM); in the test with M. penetrans (Mp), 0.016 µg/mL (≈ 0.0445 µM).
Take `C[C@H]1COc2c(N3CCN(C)CC3)c(F)cc3c(=O)c(C(=O)O)cn1c23` [Lev, levofloxacin]: the MIC90 was 0.5 µg/mL (≈ 1.38 µM) in test [1] (setting [3]), 0.25 µg/mL (≈ 0.692 µM) with M. hominis (Mh) (setting [4]), 0.031 µg/mL (≈ 0.0858 µM) in the test with M. fermentans (Mf) (setting [5]) and 1 µg/mL (≈ 2.77 µM) in test [2] (setting [6]). The figures for the MIC in the test with M. genitalium (Mg) and in the test with M. penetrans (Mp) were 0.5 µg/mL (≈ 1.38 µM) and 0.031 µg/mL (≈ 0.0858 µM), respectively.
Turning to `CN(C)[C@@H]1C(O)=C(C(N)=O)C(=O)[C@@]2(O)C(O)=C3C(=O)c4c(O)cccc4[C@@](C)(O)[C@H]3C[C@@H]12` [Tet, tetracycline], the MIC90 amounted to 0.25 µg/mL (≈ 0.563 µM) in test [1], 32 µg/mL (≈ 72 µM) in the test with M. hominis (Mh) (setting [4]), 0.063 µg/mL (≈ 0.142 µM) in the test with M. fermentans (Mf) (setting [5]) and 1 µg/mL (≈ 2.25 µM) in test [2]. The MIC with M. genitalium (Mg) turned out to be 0.063 µg/mL (≈ 0.142 µM); with M. penetrans (Mp), 0.125 µg/mL (≈ 0.281 µM).
Take `N[C@@H]1[C@H]2CN(c3nc4c(cc3F)c(=O)c(C(=O)O)cn4-c3ccc(F)cc3F)C[C@@H]12` [Trov, trovafloxacin]: the figures for the “MIC90” value against M. hominis (Mh) and in the test with M. fermentans (Mf) were 0.031 µg/mL (≈ 0.0745 µM) and 0.016 µg/mL (≈ 0.0384 µM), respectively. Besides, in the test with M. penetrans (Mp), the “MICs for Mp” value is recorded as “≦0.008 ug/ml”.
